# Measurements reported in patent publication US12527788B2, “Defining RNA-small molecule affinity landscapes enables design of a small molecule inhibitor of an oncogenic non-coding RNA” (University of Florida Research Foundation, Incorporated, priority 2017, dated 2026).
# Legend:
# [1] = test system: DU145 prostate cancer cells; experiment: Apoptosis by Annexin V/PI staining; type: cell-based; settings: 10 μM and 20 μM
# Experimental: A, Effect of 4 on STK4 protein expression, a direct target of miR-18a. B, Ability of 4 (10 μM and 20 μM) and a miR-18a antagomir (50 nM) to trigger apoptosis. *, p<0.05 and **, p<0.01, as determined by a two-tailed Student t-test.
# Although the most common route to modulate protein expression is to inhibit them directly, here we show it is possible to increase protein expression by targeting non-coding RNAs that repress their production.
# miR-92a = experiment: RT-qPCR of mature miRNA levels in DU145 cells; type: cell-based, human
# Experimental: (§1) In particular, the mature levels of each miRNA in the cluster were studied by RT-qPCR. In agreement with our in vitro Dicer processing studies (FIG. 8A and Figures S-58-S-62), 4 decreases the amount of mature miR-17, -18a, and -20a at low micromolar concentrations with an IC50 of ˜10 µM, but has no effect on miR-19a, -19b, and -92a (FIG. 8B).
# (§2) Cell Culture: DU145 cells were cultured in growth medium (Roswell Park Memorial Institute medium (RPMI) supplemented with 10% fetal bovine serum (FBS)) at 37° C. and 5% CO2
# (§3) Total RNA was extracted from cells using a Quick-RNA Miniprep Kit (Zymo Research) per the manufacturer's protocol. Approximately 200 ng of total RNA was used in reverse transcription (RT) reactions, which were completed using a miScript II RT kit (Qiagen) per the manufacturer's protocol. RT-qPCR was performed on a 7900HT Fast Real Time PCR System (Applied Biosystem) using power SYBR Green Master Mix (Applied Biosystems). All primer sets were purchased from Integrated DNA Technologies, Inc. (IDT) or Eurofins (Table S1). The expression levels of mature miRNAs were normalized to U6 small nuclear RNA or 18s rRNA.
# miR-19a = experiment: RT-qPCR of mature miRNA levels in DU145 cells; type: cell-based, human
# Experimental: as §1, §2, §3
# miR-19b = experiment: RT-qPCR of mature miRNA levels in DU145 cells; type: cell-based, human
# Experimental: as §1, §2, §3
# STK4 protein = experiment: Western blotting of STK4 in DU145 cells; type: cell-based; settings: 20 μM
# Experimental: A previous study has shown that miR-18a represses serine/threonine protein kinase 4 (STK4) protein, a tumor suppressor, in prostate cancer cells and promotes tumorigenesis.^45 Thus, we studied the ability of compound 4 to de-repress STK4 and trigger apoptosis. Treatment of DU145 cells with 20 μM of 4 increases levels of STK4 by 2.5-fold (FIG. 9A).
# Western Blotting: Cells were grown in 6-well plates to ˜80% confluency in complete growth medium and then incubated with 10 or 20 μM of 4 for 48 h. Total protein was extracted using M-PER Mammalian Protein Extraction Reagent (Pierce Biotechnology) per the manufacturer's recommended protocol. Extracted total protein was quantified using a Micro BCA Protein Assay Kit (Pierce Biotechnology). […]
# The membrane was briefly washed with 1× Tris-buffered saline (TBS; 50 mM Tris-CI, pH 7.5. 150 mM NaCl) and blocked with 5% milk in 1×TBST (1×TBS containing 0.05% Tween-20) for 1 h at room temperature. […] After washing with 1×TBST, protein expression was quantified using SuperSignal West Pico Chemiluminescent Substrate (Pierce Biotechnology) per the manufacturer's protocol.
# The membrane was then stripped using 1× Stripping Buffer (200 mM glycine, 1% Tween-20 and 0.1% SDS, pH 2.2) followed by washing in 1×TBST. […] ImageJ software from the National Institutes of Health was used to quantify band intensities.
structure (smiles),measurement,setting,value
CN1CCN(c2ccc(-c3ccc4nc(-c5cc(C(C)(C)C)c(OCCCC(=O)NCCCN=[N+]=[N-])c(C(C)(C)C)c5)[nH]c4c3)cc2)CC1 [Compound 4],Apoptosis,[1],triggers apoptosis
same,Effect on mature miRNA level,miR-92a,no effect
same,Effect on mature miRNA level,miR-19a,no effect
same,Effect on mature miRNA level,miR-19b,no effect
same,Increase of STK4 levels,STK4 protein,2.5 fold
